Test results published in article PMC12775434, “Ultra-large virtual screening unveils potent agonists of the neuromodulatory orphan receptor GPR139” (Nature Communications, 2025).
Values joined by “and” are separate entries in the source; they are usually repeats but may differ in a detail not shown here. Equal values may be shown once.

What was measured:
Type in all cases: cell-based
[1] = target: T1, GPR139 (Gi2 activation) (Homo sapiens, UniProt Q6DWJ6); experiment: BRET G protein activation (dissociation) assay, Gi2, HEK293A; conditions: for G protein activation, Gi2: individual replicates
T1 construct: expressed in transfected cells; host or cells: HEK293A (transient, Lipofectamine 2000)
T1 sequence (Q6DWJ6 1-353): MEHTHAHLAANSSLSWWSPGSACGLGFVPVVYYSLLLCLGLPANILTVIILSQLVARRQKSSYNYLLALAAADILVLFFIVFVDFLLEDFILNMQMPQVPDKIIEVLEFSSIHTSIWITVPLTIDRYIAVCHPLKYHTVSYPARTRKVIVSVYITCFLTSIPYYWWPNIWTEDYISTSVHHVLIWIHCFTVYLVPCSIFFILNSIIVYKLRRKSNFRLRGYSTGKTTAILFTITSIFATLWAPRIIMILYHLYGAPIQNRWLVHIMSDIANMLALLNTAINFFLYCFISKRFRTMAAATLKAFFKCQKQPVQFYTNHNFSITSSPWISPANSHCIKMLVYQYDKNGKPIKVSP
Description: (§1) Primary screening and pharmacological characterization of compounds were performed using a CHO-K1 cell line that stably expresses human GPR139 (GPR139-CHOk1). The GPR139-CHOk1 cell line was kindly provided by H. Lundbeck A/S, Denmark[24]. GPR139-CHOk1 cells were grown in Ham’s F-12 Kaighn’s Modification Medium (ThermoFisher #21127030) supplemented with 10% dialyzed fetal bovine serum (US origin, ThermoFisher #26400044), 100 units/mL Penicillin-Streptomycin (ThermoFisher #15140122), and 1 mg/mL Geneticin (ThermoFisher #11811031). […] M1R-CHOk1 cells were purchased from The Missouri S&T cDNA Resource Center (#CEM100TN00). M1R-CHOk1 cells were grown in Ham’s F12 Medium (ThermoFisher #21765029) supplemented with 10% fetal bovine serum (Brazilian origin, ThermoFisher #10270106), 100 units/mL Penicillin-Streptomycin, and 0.25 mg/mL Geneticin. HEK293A cells transiently transfected with GPR139 were used for additional pharmacological assessment of signaling pathways activated by GPR139. HEK239A cells were generously provided by Dr. Asuka Inoue, Tohoku University, Japan. HEK293A cells were grown in Dulbecco’s Modified Eagle Medium (ThermoFisher #31966047) supplemented with 10% dialyzed fetal bovine serum and 100 units/mL Penicillin-Streptomycin. Cell lines were maintained at 37 °C in humidified incubator equilibrated with 5% CO2.
(§2) The G protein dissociation assay developed by the lab of Kirill A. Martemyanov was used to measure the coupling of multiple G proteins by GPR139[57]. The assay was performed as described previously with minor modifications. HEK293A cells were reverse transfected 20–24 h prior to assay. 50,000 cells were plated in each well of white opaque tissue culture treated 96-well plates (PerkinElmer #6005680) previously coated with poly-D-lysine. Transfection solutions were prepared as described, and 10 µL transfection solution was mixed with 100 µL cells in each well. The cells in each well were transfected with 18.9 ng GPR139, 6.3 ng Venus 1-155 Gγ2, 6.3 ng Venus 159-239 Gβ1, 6.3 ng masGRK3ct-NanoLuc and 12.6 ng Gαi2, 12.6 ng Gαi3, 12.6 ng GαoA, 12.6 ng Gαq or 25.2 ng Gα12 using 375 nL Lipofectamine 2000 Transfection Reagent. Transfections with Gαq and Gα12 contained 6.3 ng DNA of the active subunit S1 of pertussis toxin (PTX-S1). Each transfection was normalized to 150 ng total DNA with pcDNA3.1. The BRET biosensors were a kind gift from the Martemyanov lab. On the day of the experiment the cells were washed with HEPES buffer. Test compounds were diluted in HEPES buffer from DMSO stocks (final DMSO concentration of maximally 0.3%). NanoLuc Luciferase substrate NanoGlo—furimazine (Promega #N1120) was diluted 1000-fold (final) in HEPES buffer. NanoGlo and test compounds were added, and measurements were performed after 10 s for Gi3, 15 s for Gi2 and GoA, 20 s for Gq, and 90 s for G12—the timepoint where maximal signal occurred with each G protein, ensuring proper determination of the potency for the G protein coupling. Simultaneous dual emission was measured at 535 nm and 475 nm on LUMIstar Omega Microplate Reader (BMG Labtech) at room temperature. The BRET ratio of 535 nm/475 nm (Venus/NanoLuc), reflecting the dissociation of the G protein heterotrimer, was used to determine the G protein activation. The basal BRET ratio obtained with buffer condition was subtracted from the absolute BRET ratio at a given test compound concentration, and the responses were normalized to the one obtained with 10 µM JNJ-63533054 for the activation of Gi2.
(§3) Pharmacological data and statistical analyses were performed in GraphPad Prism v9–10 (Graphpad Software Inc., San Diego, CA), which are also specifically described in the figure and table legends. […]

[2] = target: T2, GPR139 (GoA activation) (Homo sapiens, UniProt Q6DWJ6); experiment: BRET G protein activation (dissociation) assay, GoA, HEK293A; conditions: for G protein activation, GoA: individual replicates
T2 construct: expressed in transfected cells; host or cells: HEK293A (transient, Lipofectamine 2000)
T2 sequence (Q6DWJ6 1-353): T1 sequence (Q6DWJ6 1-353)
Description: as §1, §2, §3

[3] = target: T3, GPR139 (Gq activation) (Homo sapiens, UniProt Q6DWJ6); experiment: BRET G protein activation (dissociation) assay, Gq, HEK293A; conditions: for G protein activation, Gq: individual replicates
T3 construct: expressed in transfected cells; host or cells: HEK293A (transient, Lipofectamine 2000)
T3 sequence (Q6DWJ6 1-353): T1 sequence (Q6DWJ6 1-353)
Description: as §1, §2, §3

[4] = HEK293-A, normalized to JNJ-63533054 (JNJ(S))

Q: `Cc1cscc1-c1nc(CC(=O)N[C@@H](C)c2ccccc2)no1` [1.1(S)] was tested. Which Emax [1, 4] did it give?
A: The Emax was 95 ± 5%.

Q: And the EC50 ([1]; Supplementary Table 6, read-out: pEC50 Gi2 (converted))?
A: Its EC50 is 0.0501 µM.

Q: And the “G protein activation, Gi2” value ([1]; log [compound] M -4.5)?
A: Its value is 94 % of JNJ-63533054 at Gi2 (2×) and 104 % of JNJ-63533054 at Gi2.

Q: What about the “G protein activation, Gi2” value ([1]; log [compound] M -5.0) of the same compound?
A: The value was 90 % of JNJ-63533054 at Gi2 (2×) and 104 % of JNJ-63533054 at Gi2.

Q: And the “G protein activation, Gi2” value ([1]; log [compound] M -5.5)?
A: The value was 86 % of JNJ-63533054 at Gi2 and 80 % of JNJ-63533054 at Gi2 and 99 % of JNJ-63533054 at Gi2.

Q: What about the “G protein activation, Gi2” value ([1]; log [compound] M -6.0) of the same compound?
A: The value was 86 % of JNJ-63533054 at Gi2 and 80 % of JNJ-63533054 at Gi2 and 99 % of JNJ-63533054 at Gi2.

Q: And the “G protein activation, Gi2” value ([1]; log [compound] M -6.5)?
A: Its value is 82 % of JNJ-63533054 at Gi2 and 74 % of JNJ-63533054 at Gi2 and 89 % of JNJ-63533054 at Gi2.

Q: And the “G protein activation, Gi2” value ([1]; log [compound] M -7.0)?
A: The value was 63 % of JNJ-63533054 at Gi2 and 57 % of JNJ-63533054 at Gi2 and 72 % of JNJ-63533054 at Gi2.

Q: What about the “G protein activation, Gi2” value ([1]; log [compound] M -7.5) of the same compound?
A: Its value is 36 % of JNJ-63533054 at Gi2 and 35 % of JNJ-63533054 at Gi2 and 49 % of JNJ-63533054 at Gi2.

Q: What about the “G protein activation, Gi2” value ([1]; log [compound] M -8.0) of the same compound?
A: Its value is 14 % of JNJ-63533054 at Gi2 and 11 % of JNJ-63533054 at Gi2 and 32 % of JNJ-63533054 at Gi2.

Q: What about the Emax [2, 4] of the same compound?
A: Its Emax is 96 ± 3%.

Q: And the EC50 ([2]; Supplementary Table 6)?
A: The EC50 was 0.0631 µM.

Q: And the “G protein activation, GoA” value ([2]; log [compound] M -4.5)?
A: Its value is 105 % of JNJ-63533054 at Gi2 and 96 % of JNJ-63533054 at Gi2 and 101 % of JNJ-63533054 at Gi2.

Q: And the “G protein activation, GoA” value ([2]; log [compound] M -5.0)?
A: The value was 96 % of JNJ-63533054 at Gi2 and 86 % of JNJ-63533054 at Gi2 and 97 % of JNJ-63533054 at Gi2.

Q: And the “G protein activation, GoA” value ([2]; log [compound] M -5.5)?
A: The value was 94 % of JNJ-63533054 at Gi2 and 83 % of JNJ-63533054 at Gi2 and 96 % of JNJ-63533054 at Gi2.

Q: And the “G protein activation, GoA” value ([2]; log [compound] M -6.0)?
A: The value was 93 % of JNJ-63533054 at Gi2 and 78 % of JNJ-63533054 at Gi2 and 92 % of JNJ-63533054 at Gi2.

Q: And the “G protein activation, GoA” value ([2]; log [compound] M -6.5)?
A: The value was 83 % of JNJ-63533054 at Gi2 and 70 % of JNJ-63533054 at Gi2 and 76 % of JNJ-63533054 at Gi2.

Q: What about the “G protein activation, GoA” value ([2]; log [compound] M -7.0) of the same compound?
A: The value was 62 % of JNJ-63533054 at Gi2 and 52 % of JNJ-63533054 at Gi2 and 61 % of JNJ-63533054 at Gi2.

Q: What about the “G protein activation, GoA” value ([2]; log [compound] M -7.5) of the same compound?
A: The value was 34 % of JNJ-63533054 at Gi2 and 29 % of JNJ-63533054 at Gi2 and 31 % of JNJ-63533054 at Gi2.

Q: And the “G protein activation, GoA” value ([2]; log [compound] M -8.0)?
A: Its value is 11 % of JNJ-63533054 at Gi2 and 8 % of JNJ-63533054 at Gi2 and 13 % of JNJ-63533054 at Gi2.

Q: And the Emax [3, 4]?
A: The Emax was 35 ± 3%.

Q: What about the EC50 ([3]; Supplementary Table 6) of the same compound?
A: Its EC50 is 0.2 µM.

Q: And the “G protein activation, Gq” value ([3]; log [compound] M -4.5)?
A: Its value is 35 % of JNJ-63533054 at Gi2 and 45 % of JNJ-63533054 at Gi2 and 30 % of JNJ-63533054 at Gi2.

Q: What about the “G protein activation, Gq” value ([3]; log [compound] M -5.0) of the same compound?
A: Its value is 36 % of JNJ-63533054 at Gi2 and 38 % of JNJ-63533054 at Gi2 and 28 % of JNJ-63533054 at Gi2.

Q: And the “G protein activation, Gq” value ([3]; log [compound] M -5.5)?
A: Its value is 32 % of JNJ-63533054 at Gi2 and 38 % of JNJ-63533054 at Gi2 and 27 % of JNJ-63533054 at Gi2.

Q: What about the “G protein activation, Gq” value ([3]; log [compound] M -6.0) of the same compound?
A: The value was 30 % of JNJ-63533054 at Gi2 and 34 % of JNJ-63533054 at Gi2 and 26 % of JNJ-63533054 at Gi2.

Q: And the “G protein activation, Gq” value ([3]; log [compound] M -6.5)?
A: The value was 21 % of JNJ-63533054 at Gi2 and 30 % of JNJ-63533054 at Gi2 and 16 % of JNJ-63533054 at Gi2.

Q: What about the “G protein activation, Gq” value ([3]; log [compound] M -7.0) of the same compound?
A: Its value is 11 % of JNJ-63533054 at Gi2 and 15 % of JNJ-63533054 at Gi2 and 8 % of JNJ-63533054 at Gi2.

Q: And the “G protein activation, Gq” value ([3]; log [compound] M -7.5)?
A: The value was 2.21 % of JNJ-63533054 at Gi2 and 3.62 % of JNJ-63533054 at Gi2 and 4 % of JNJ-63533054 at Gi2.

Q: And the “G protein activation, Gq” value ([3]; log [compound] M -8.0)?
A: Its value is -2.13 % of JNJ-63533054 at Gi2 and -0.806 % of JNJ-63533054 at Gi2 and 3.47 % of JNJ-63533054 at Gi2.
